Experimental data as given in patent US10584159B2, “Renilla based biosensors for monitoring biomolecule localization and trafficking in cells” (The Royal Institution for the Advancement of …, priority 2014, dated 2020).
Starred links: 1 amine or outer side, 2 acyl side, 3 side chain; linkers in the order of their positions; H or OH if unused. Positions of bridges follow the written chain, without caps; N, C: chain ends. Non-standard residues stand in square brackets, D forms with d. Residues, ends and D or L forms follow the SMILES beside them. No end group written: not given here. *: point of attachment. Leu(3R-OH,Nα-propionyl) = CCC(=O)N[C@H](C(=O)*)[C@H](O)C(C)C; X1 = CC(C)[C@@H](O[*:3])[C@H](N[*:1])C(=O)[*:2]; NMeT = CN[C@H](C(=O)O)[C@@H](C)O; dPhLac = O=C(O)[C@H](O)Cc1ccccc1; NMeA = CN[C@@H](C)C(=O)O; NMeDha = C=C(NC)C(=O)O

What was measured:
[1] = biological target: T1, AT1R (Homo sapiens, UniProt P30556); assay: AT1R trafficking to endosomes BRET (AT1R-RlucII/rGFP-endofinFYVE); format: cell-based; design: expressed in transfected cells; host or cells: HEK293SL (HEK293 for the screen)
T1 sequence (P30556 with tags, fused parts or gaps): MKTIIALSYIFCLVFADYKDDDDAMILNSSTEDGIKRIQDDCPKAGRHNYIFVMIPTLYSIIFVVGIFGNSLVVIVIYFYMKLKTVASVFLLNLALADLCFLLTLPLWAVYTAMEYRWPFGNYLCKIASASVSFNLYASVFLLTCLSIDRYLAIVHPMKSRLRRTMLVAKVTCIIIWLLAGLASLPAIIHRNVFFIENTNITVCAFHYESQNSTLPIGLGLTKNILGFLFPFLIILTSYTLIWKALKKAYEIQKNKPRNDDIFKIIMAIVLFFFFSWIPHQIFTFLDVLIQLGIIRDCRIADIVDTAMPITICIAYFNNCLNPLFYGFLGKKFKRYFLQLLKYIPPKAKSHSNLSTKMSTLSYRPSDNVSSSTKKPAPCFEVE
Description: (§1) BRET measurements for FIGS. 1B to 9D, 25D to 25F. The following day of transfection, cells were detached and replated onto poly-ornithine coated white 96-well plate at a density of 25,000 cells per well. The next day, cells were washed once with pre-warmed Tyrode's buffer (140 mM NaCl, 2.7 mM KCl, 1 mM CaCl2, 12 mM NaHCO3, 5.6 mM D-glucose, 0.5 mM MgCl2, 0.37 mM NaH2PO4, 25 mM HEPES, pH 7.4), and then stimulated with either various concentrations of ligands in Tyrode's buffer for the indicated time, or single concentration of ligands for various times at 37° C. For recycling experiment, after stimulating the cells with the ligands for 30 min at 37° C., they were washed either three times with ice-cold Tyrode's buffer or once with Tyrode's buffer/three times with acid (50 mM sodium citrate, pH 4.0)/two times with Tyrode's buffer. All the washing steps were performed on ice. […] The cell-permeable substrate, coelenterazine 400a was added at a final concentration of 5 μM in Tyrode's buffer 3-4 min before BRET measurements. […] The BRET signal was determined by calculating the ratio of the light intensity emitted by the GFP10 or rGFP over the light intensity emitted by the RlucII. All the BRET measurements were performed in triplicate at 37° C.
Data Analysis. Estimation of the t1/2 and the EC50 values for ligand-mediated endocytosis were calculated using the GraphPad® Prism curve fitting program The curves presented throughout this study, representing the best fits, and were generated using this GraphPad® Prism program as well.

[2] = biological target: T1, AT1R; assay: AT1R sorting to rab11 vesicles BRET (AT1R-RlucII/rGFP-rab11); format: cell-based; design: signal peptide-Flag-human AT1R (spFlag-AT1R); signal peptide (N); expressed in transfected cells; host or cells: HEK293SL (HEK293 for the screen)
Description: BRET measurements for FIGS. 1B to 9D, 25D to 25F. The following day of transfection, cells were detached and replated onto poly-ornithine coated white 96-well plate at a density of 25,000 cells per well. The next day, cells were washed once with pre-warmed Tyrode's buffer (140 mM NaCl, 2.7 mM KCl, 1 mM CaCl2, 12 mM NaHCO3, 5.6 mM D-glucose, 0.5 mM MgCl2, 0.37 mM NaH2PO4, 25 mM HEPES, pH 7.4), and then stimulated with either various concentrations of ligands in Tyrode's buffer for the indicated time, or single concentration of ligands for various times at 37° C. For recycling experiment, after stimulating the cells with the ligands for 30 min at 37° C., they were washed either three times with ice-cold Tyrode's buffer or once with Tyrode's buffer/three times with acid (50 mM sodium citrate, pH 4.0)/two times with Tyrode's buffer. All the washing steps were performed on ice. Cells were then further incubated with Tyrode's buffer at 37° C. in a water bath for 45 min. […] Measurements were performed by using Synergy2 (BioTek®) microplate reader with a filter set of 410±80 nm and 515±30 nm for detecting the RlucII Renilla luciferase (donor) and GFP10 or rGFP (acceptor) light emissions, respectively. The BRET signal was determined by calculating the ratio of the light intensity emitted by the GFP10 or rGFP over the light intensity emitted by the RlucII. […]

[3] = tested on: Gq; assay: RlucII-tagged Gq translocation to rGFP markers (BRET) with TPαR; format: cell-based, human; conditions: 100 nM Ubo-Qic 20 min
[4] = biological target: T1, AT1R; assay: AT1R sorting to rab4 vesicles BRET (AT1R-RlucII/rGFP-rab4); format: cell-based; design: expressed in transfected cells; host or cells: HEK293SL (HEK293 for the screen)
Description: as §1

[5] = biological target: T2, AT1R (Homo sapiens, UniProt P30556); assay: β-arrestin2 targeting to endosomes BRET (AT1R/βarr2-RlucII/rGFP-endofinFYVE); format: cell-based; conditions: 40 min
T2 construct: expressed in transfected cells; host or cells: HEK293SL
T2 sequence (P30556 1-359): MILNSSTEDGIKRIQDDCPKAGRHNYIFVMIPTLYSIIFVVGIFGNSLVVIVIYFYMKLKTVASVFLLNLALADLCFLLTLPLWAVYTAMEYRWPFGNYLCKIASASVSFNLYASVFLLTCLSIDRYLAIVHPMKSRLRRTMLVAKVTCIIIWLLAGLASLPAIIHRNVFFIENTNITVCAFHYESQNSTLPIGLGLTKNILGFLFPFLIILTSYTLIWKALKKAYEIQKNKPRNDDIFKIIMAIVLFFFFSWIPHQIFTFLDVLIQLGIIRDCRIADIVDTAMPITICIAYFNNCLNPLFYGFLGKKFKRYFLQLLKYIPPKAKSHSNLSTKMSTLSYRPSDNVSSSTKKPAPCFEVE
Description: BRET measurements for FIGS. 1B to 9D, 25D to 25F. The following day of transfection, cells were detached and replated onto poly-ornithine coated white 96-well plate at a density of 25,000 cells per well. The next day, cells were washed once with pre-warmed Tyrode's buffer (140 mM NaCl, 2.7 mM KCl, 1 mM CaCl2, 12 mM NaHCO3, 5.6 mM D-glucose, 0.5 mM MgCl2, 0.37 mM NaH2PO4, 25 mM HEPES, pH 7.4), and then stimulated with either various concentrations of ligands in Tyrode's buffer for the indicated time, or single concentration of ligands for various times at 37° C. For recycling experiment, after stimulating the cells with the ligands for 30 min at 37° C., they were washed either three times with ice-cold Tyrode's buffer or once with Tyrode's buffer/three times with acid (50 mM sodium citrate, pH 4.0)/two times with Tyrode's buffer. All the washing steps were performed on ice. Cells were then further incubated with Tyrode's buffer at 37° C. in a water bath for 45 min. The cell-permeable substrate, coelenterazine 400a was added at a final concentration of 5 μM in Tyrode's buffer 3-4 min before BRET measurements. Measurements were performed by using Synergy2 (BioTek®) microplate reader with a filter set of 410±80 nm and 515±30 nm for detecting the RlucII Renilla luciferase (donor) and GFP10 or rGFP (acceptor) light emissions, respectively. The BRET signal was determined by calculating the ratio of the light intensity emitted by the GFP10 or rGFP over the light intensity emitted by the RlucII. All the BRET measurements were performed in triplicate at 37° C.

[6] = 100 nM Ubo, 30 min pre-incubation

| Compound | effect on DVG- and SI-mediated accumulation of receptors in endosomes [1, 6] | reduction of targeting of AngII-bound AT1R to Rab5 containing endosomes [1, 6] | effect on AngII-bound AT1R in Rab11 vesicles ([2]; 100 nM Ubo, 100 nM AngII 30 min) | U46619 response of Gq translocation to rGFP-CAAX Hras, rGFP-CAAX CCIL and Golgi markers after Gq inhibitor [3] | effect on AngII-bound AT1R in Rab4 vesicles ([4]; 100 nM Ubo, 100 nM AngII 10 min) | time to maximal AT1R internalization into endosomes ([1]; 100 nM SI or 1 μM DVG) | less efficacious than AngII at promoting AT1R concentration in early endosomes ([1]; 100 nM SI or 1 μM DVG vs 100 nM AngII) | receptor accumulation in endosomes, compared to AngII ([1]; 40 min) | β-arrestin2 trafficking to endosomes with receptors, compared to AngII [5] | BRET signal relative to AngII ([2]; 100 nM SI, 1 μM DVG) | time at which BRET signal plateaued ([4]; 100 nM AngII, 100 nM SI, 1 μM DVG) |
| --- | --- | --- | --- | --- | --- | --- | --- | --- | --- | --- | --- |
| C=C1C(=O)N[C@@H](C)C(=O)N(C)[C@@H](C)C(=O)N[C@@H]([C@H](OC(=O)[C@@H](NC(=O)CC)[C@H](O)C(C)C)C(C)C)C(=O)N(C)[C@@H]([C@@H](C)OC)C(=O)O[C@H](C(C)C)[C@H](NC(C)=O)C(=O)O[C@H](Cc2ccccc2)C(=O)N1C [Ubo-QIC] (Ac-[X1][dPhLac][NMeDha]A[NMeA][X1](Leu(3R-OH,Nα-propionyl))[NMeT](Me); ester 1-C) | had no effect | more than 25% | increased AngII-bound AT1R in Rab 4 and Rab11 vesicles | No response is observed | increased AngII-bound AT1R in Rab 4 and Rab11 vesicles | – | – | – | – | – | – |
| DRVYVHPG [DVG, [Asp^1,Val^5, Gly^8]-AngII] | – | – | – | – | – | 10 min | 40% | promoted less receptor accumulation in endosomes | weakly promoted | overall higher BRET signals | 10 min |
